Read-outs that look alike come from different tables or passages of the source.
Assays:
[1] = system: Ikaros; test: Ikaros protein level in whole blood leukocyte subsets, flow cytometry; type: cell-based, human; conditions: 1, 10, 100 nM, 18 hrs; CD19+ B cells, CD3+ T cells, CD14+ monocytes, granulocytes
Protocol: (§1) Human heparinized whole blood from normal healthy volunteers (Bioreclamation, Westbury, N.Y.) was treated with 0.1% DMSO and Compound 1A (1, 10, 100 nM) for 18 hrs at 37° C., 5% CO2. After 18 hrs, the blood was lysed and fixed with 1× Lyse/Fix Buffer (BD Biosciences) for 10 minutes at 37° C. Washed cells with cold PBS and cells were first multicolor stained with mouse anti-human CD3-PE mAb, mouse anti-human CD19-APC mAb and mouse anti-human-CD14-PerCP mAb (all from BD Biosciences) to identify CD3+ T cells, CD19+ B cells and CD14+ monocytes, respectively. The cells were then permeabilized by adding BD Perm/Wash Buffer I. Blocked non-specific binding by added FcR Blocking Reagent (Miltenyi Biotech) for 10 minutes prior to staining for intracellular Aiolos or Ikaros content. The cells were then stained with rabbit anti-human Aiolos polyclonal Ab (Santa Cruz, 1:200 dilution in Perm/Wash Buffer) or anti-human Ikaros polyclonal Ab (Santa Cruz, 1:50 dilution in Perm/Wash Buffer), followed by a goat-anti-rabbit mAb-AF488 Ab (Invitrogen, at 1:400 dilution in Perm/Wash Buffer) to test the intracellular Aiolos or Ikaros levels. […] Aiolos and Ikaros protein levels in B cells, T cells, monocytes and granulocytes were analyzed by FACSCanto with FACSDiva 6 (BD Biosciences) based on the gating of CD3+ cells, CD19+ cells, CD14+ cells and granulocytes (FSC/SSC). […]

[2] = system: CD3+ T cells; test: Peripheral blood T cell counts in healthy volunteers; type: in vivo, human
Protocol: (§2) Healthy volunteers were administered placebo (n=10) or Compound 1A at doses of 0.03 mg, 0.1 mg, 0.3 mg, 1 mg, or 2 mg (N=6 each). Blood samples were drawn prior to dosing, or 3 hr, 12 hr, and 24 hr after dosing. Blood samples were lysed and fixed immediately by mixing 1 volume of blood with 20 volumes of 1× Lyse/Fix buffer (BD Biosciences, cat#558049) and mixing thoroughly by inverting the tube several times. This sample mix was incubated in a 37° C. water bath for 10 minutes, and the cells were pelleted by centrifugation at 800×g for 5 minutes to remove the supernatant by aspiration. The cells were washed twice with 2 mL of cold phosphate buffer saline (PBs), then permeabilized by adding 2 mL of cold BD Cytofix/cytoperm buffer and incubated on ice for 15 minutes. The cells were centrifuged than washed twice with BD perm/wash buffer, then resuspended in 40 ul of BD perm/wash buffer. Cells were stained with anti-CD3 or anti-CD19 antibody, and 20 ul of anti-Aiolos Ab (Santa Cruz Santa Cruz, rabbit polyclonal IgG, cat #sc-101982 at 1:200 dilution with staining buffer), or 20 uL of appropriate isotype controls to cells. Cells were mixed thoroughly and incubated at room temperature for 30 minutes in the dark, washed once with BD perm/wash buffer, then resuspended in 80 ul of BD perm/wash buffer, and 20 uL of secondary antibody was added before analysis on a flow cytometer.
Absolute T cell counts in the peripheral blood were measured by flow cytometry with anti-CD3 antibody as described above.

[3] = system: anti-phospholipid autoantibodies, SLE PBMC; test: Anti-phospholipid autoantibody production in cultures of SLE PBMC (ELISA); type: cell-based; conditions: Homo sapiens, N=8
Protocol: (§3) PBMCs were purified from human buffy coats using Ficoll-Paque method. CD19+ B cells were isolated from PBMC by following EasySep Human B cell enrichment cocktail protocol (StemCell Technologies Catalog #19054). Fresh B cell cocktail was prepared by adding 50 μg/mL of human transferrin to B cell medium (Iscove's medium with 10% PFBS, 1% P/S, and 5 μg/mL human insulin). The required volume of medium needed for the experiment was filtered through a 0.22 micron filter. B cell differentiation cocktail (final concentration): recombinant human Interleukin (IL)-2 (20 U/mL), IL-10 (50 ng/mL), IL-15 (10 ng/mL), CD40 Ligand/TNFSF5/histidine-tagged (50 ng/mL), polyHistidine mouse IgG1 antibody (5 μg/mL), and ODN 2006-Human TLR9 ligand (10 μg/mL). CD19+ cells were pretreated with Compound 1A or a Syk inhibitor or 0.1% DMSO for 1 hr, then incubated with B-cell differentiation medium for indicated times.
(§4) Whole blood samples from patients identified with SLE were obtained from Sanguine Biosciences; Inc. the blood was diluted with sterile Dulbecco's phosphate buffered saline solution (DPBS) and placed into three 50-mL conical tubes. […] Cell culture supernatants were harvested and analyzed for autoantibodies using an Anti-double stranded DNA antibody ELISA kit (Orgentec ORG 604S) and an Anti-Cardiolipin/Phospholipid ELISA kit (Orgentec ORG-529).

[4] = system: Aiolos; test: T cell intracellular Aiolos after single doses in healthy volunteers; type: in vivo, human; conditions: 12 hours postdose
Protocol: as §2

[5] = system: Aiolos; test: B cell intracellular Aiolos after single doses in healthy volunteers; type: in vivo, human
Protocol: as §2

[6] = system: Aiolos; test: Aiolos protein level in whole blood leukocyte subsets, flow cytometry; type: cell-based, human; conditions: 1, 10, 100 nM, 18 hrs; CD19+ B cells, CD3+ T cells, CD14+ monocytes, granulocytes
Protocol: as §1

[7] = system: IL-2; test: Ex vivo IL-2 production in anti-CD3-stimulated whole blood of dosed healthy volunteers; set-up: species or system human; conditions: 12 hours postdose on Day 1
Excerpt: Whole blood was stimulated with anti-CD3 antibody and analyzed for IL-2 using the CD3 TruCulture system (Part number 782-001202) by Myriad Rules Based Medicine (Austin, Tex.).

[8] = system: IL-1β; test: Ex vivo IL-1β production in lipopolysaccharide-stimulated whole blood of dosed healthy volunteers; set-up: species or system human; conditions: 12 hours postdose
Excerpt: Whole blood was stimulated with lipopolysachharide and analyzed for IL-1β using the LPS TruCulture system (Part number 782-001087) by Myriad Rules Based Medicine (Austin, Tex.).

[9] = system: anti-dsDNA autoantibodies, SLE PBMC; test: Anti-dsDNA autoantibody production in cultures of SLE PBMC (ELISA); type: cell-based; conditions: Homo sapiens, N=9
Protocol: as §3, §4

[10] = system: CD19+ B cells; test: Peripheral blood B cell counts in healthy volunteers; type: in vivo; conditions: Homo sapiens
Protocol: as §2, with “Blood samples were drawn prior to dosing, or 3 hr, 12 hr, and 24 hr after dosing.” left out
Absolute B cell counts in the peripheral blood were measured by flow cytometry with anti-CD19 antibody as described above.

`O=C1CC[C@H](N2Cc3c(OCc4ccc(CN5CCOCC5)cc4)cccc3C2=O)C(=O)N1` [Compound 1A, (S)-3-[4-(4-morphlin-4-ylmethylbenzyloxy)-1-oxo-1,3-dihydro-isoindo-2-yl]piperidine-2,6-dione] was tested, and the “Ikaros protein levels in whole blood leukocyte subsets” value [1] was “reduced”, the “peripheral blood T cell counts, percent of baseline” value ([2]; 0.3 mg, Day 2) was 84.1% and the “peripheral blood T cell counts, percent of baseline” value ([2]; 1 mg, Day 2) was 79.4%. The “peripheral blood T cell counts, percent of baseline” value ([2]; 2 mg, Day 5) was 73.8%, the IC50 [3] was roughly 10 nM and the “T cell intracellular Aiolos, percent of baseline” value ([4]; 1 mg single dose) was 22.3%. The “T cell intracellular Aiolos, percent of baseline” value ([4]; 2 mg single dose) was 26.1%, the “B cell intracellular Aiolos, percent of baseline” value ([5]; 0.3 mg single dose, 24 hours postdose) was 24.8% and the “B cell intracellular Aiolos, percent of baseline” value ([5]; 1 mg single dose, 12 hours postdose) was 28.2%. The “B cell intracellular Aiolos, percent of baseline” value ([5]; 2 mg single dose, 12 hours postdose) was 25.0%, the “Aiolos protein levels in whole blood leukocyte subsets” value [6] was “reduced” and the “maximum IL-2, mean percent of baseline” value ([7]; 0.3 mg) was 315%. The “maximum IL-2, mean percent of baseline” value ([7]; 1 mg) was 973%, the “maximum IL-2, mean percent of baseline” value ([7]; 2 mg) was 915% and the “maximum IL-1β response, mean percent of baseline” value ([8]; 0.3 mg) was 42.2%. The “maximum IL-1β response, mean percent of baseline” value ([8]; 1 mg) was 21.8%, the “maximum IL-1β response, mean percent of baseline” value ([8]; 2 mg) was 16.3% and the IC50 [9] was roughly 10 nM. It also gave an Emax ([10]; 48 h, 1 mg, Day 2, read-out: absolute CD19+ cells, mean percent of baseline (maximum response)) of 67.3%, an Emax ([10]; 72 h, 0.3 mg, Day 3, read-out: absolute CD19+ cells, mean percent of baseline (maximum response)) of 73.5% and an Emax ([10]; 72 h, 2 mg, Day 3, read-out: absolute CD19+ cells, mean percent of baseline (maximum response)) of 51.3%.

Reference: patent US10980812B2, “3-(4-((4-(morpholinomethyl-benzyl)oxy)-1 -oxoisoindolin-2-yl)piperidine-2,6-dione for the treatment of systemic lupus erythematosus” (Celgene Corporation, priority 2014, dated 2021)
